Test systems include A549; CAKI-1; CCRF-CEM; COLO 205; HCT-15; HL-60; HOP-62; K562; NCI-H226; NCI-H460; OVCAR-3; OVCAR-4; OVCAR-5; RXF 393; SK-MEL-28; SK-MEL-2; U-251; UACC-62; RPMI-8226; UO-31.
Assay in all cases: NCI-60 cell line screen, 48 h

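Five concentrations, 48 hours, 96-well plates. GI50 marks 50% less growth.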 Active and inactive are the calls of the source. Rule as the data show it: active = GI50 up to about 1.1 µM and inactive = higher. A value given as a limit tells only on which side of the number the result lay.

`CCOCC(=O)N(C)c1cccc2c3c(n(C)c12)CCCCC3`: the GI50 was > 100 µM (inactive) in the experiment on A549; 0.798 µM (active) in the experiment with CAKI-1; > 58.9 µM (inactive) in the experiment with CCRF-CEM; > 100 µM (inactive) in the experiment with COLO 205; > 100 µM with HCT-15; > 100 µM (inactive) in the experiment on HL-60. The GI50 in the experiment on HOP-62 is > 100 µM (inactive); with K562, > 62.4 µM (inactive); in the experiment on NCI-H226, > 100 µM (inactive); in the experiment with NCI-H460 it was > 100 µM (inactive); in the experiment with OVCAR-3, > 100 µM (inactive); in the experiment on OVCAR-4 it was > 100 µM (inactive). For the same molecule, the GI50 in the experiment on OVCAR-5 is > 100 µM (inactive); with RXF 393, > 89.7 µM (inactive); in the experiment with SK-MEL-28, > 100 µM (inactive); with SK-MEL-2 it was > 100 µM (inactive); with U-251, > 100 µM (inactive); in the experiment on UACC-62, > 100 µM (inactive).

Turning to `CC1=CC2=C(C=O)C(=O)[C@](C)(O)[C@@H](O)C2=CO1`, the GI50 is 28 µM (inactive) in the experiment on A549; 33.5 µM (inactive) in the experiment on CAKI-1; 21.5 µM (inactive) with CCRF-CEM; 28.1 µM (inactive) with COLO 205; 28.8 µM with HCT-15; 24.3 µM (inactive) with HOP-62. The GI50 in the experiment with K562 was 27.9 µM (inactive); in the experiment with NCI-H226, 25.8 µM (inactive); with NCI-H460, 29.9 µM (inactive); in the experiment on OVCAR-3 it was 1.56 µM (inactive); in the experiment on OVCAR-4, 39.1 µM (inactive); in the experiment on OVCAR-5, > 50.8 µM (inactive). The GI50 was 15.9 µM (inactive) in the experiment on RPMI-8226; 16.7 µM (inactive) in the experiment on RXF 393; 25.2 µM (inactive) in the experiment with SK-MEL-28; 24.2 µM (inactive) with SK-MEL-2; 25.2 µM (inactive) in the experiment with U-251; 23.5 µM (inactive) in the experiment with UACC-62. The GI50 in the experiment on UO-31 is 16.8 µM (inactive).

On to `N#CCCN(CCC#N)c1ccc(/C=C2\N=C(c3cc([N+](=O)[O-])ccc3Cl)N(NC(=O)CC(=O)Nc3ccccc3Cl)C2=O)cc1`, for which the GI50 was > 100 µM (inactive) with A549; > 100 µM (inactive) in the experiment with CAKI-1; > 100 µM (inactive) in the experiment on CCRF-CEM; > 100 µM (inactive) with COLO 205; > 100 µM in the experiment on HCT-15; > 100 µM (inactive) in the experiment with HOP-62. In addition, the GI50 in the experiment on K562 was > 100 µM (inactive); with NCI-H226 it was 16.1 µM (inactive); in the experiment with OVCAR-3, > 100 µM (inactive); with OVCAR-4, > 100 µM (inactive); in the experiment with OVCAR-5 it was 26.5 µM (inactive); with RPMI-8226 it was > 100 µM (inactive). In addition, the GI50 with RXF 393, in the experiment with SK-MEL-28, with SK-MEL-2, in the experiment on U-251, in the experiment with UACC-62 and in the experiment with UO-31 was > 100 µM (inactive) each time.

For the molecule `CC1(C)CC2C(C1=O)C1(C)CCCC2(C)C1=O` (stereo not drawn), the GI50 is > 100 µM (inactive) in the experiment on A549; > 100 µM (inactive) in the experiment with CAKI-1; > 100 µM (inactive) in the experiment with CCRF-CEM; > 100 µM (inactive) in the experiment with COLO 205; > 100 µM in the experiment with HCT-15; > 100 µM (inactive) in the experiment with HL-60. In addition, the GI50 with HOP-62, with K562, with NCI-H226, with NCI-H460, with OVCAR-3 and in the experiment with OVCAR-4 was > 100 µM (inactive) each time. The GI50 in the experiment with OVCAR-5, with RPMI-8226, with SK-MEL-28, with SK-MEL-2, in the experiment with U-251 and with UACC-62 was > 100 µM (inactive) throughout. Further, the GI50 in the experiment on UO-31 was > 100 µM (inactive).

As to `O=[N+]([O-])c1ccc(CNC2=NNS(=O)(=O)c3ccccc32)cc1`, the GI50 in the experiment on A549 is > 100 µM (inactive); in the experiment with CAKI-1 it was 26.6 µM (inactive); in the experiment on CCRF-CEM, 19.5 µM (inactive); in the experiment on COLO 205, > 100 µM (inactive); in the experiment on HCT-15, 75.5 µM; in the experiment with HL-60, 79.3 µM (inactive). Also, the GI50 in the experiment on K562 is 27 µM (inactive); in the experiment on NCI-H226 it was > 100 µM (inactive); in the experiment with NCI-H460, > 100 µM (inactive); in the experiment with OVCAR-3, > 100 µM (inactive); with OVCAR-4, > 100 µM (inactive); in the experiment on OVCAR-5 it was > 100 µM (inactive). Besides, the GI50 with RPMI-8226 is 34.5 µM (inactive); in the experiment with RXF 393, > 100 µM (inactive); with SK-MEL-2, > 100 µM (inactive); with U-251, 72.1 µM (inactive); in the experiment with UACC-62 it was 34.6 µM (inactive); in the experiment on UO-31, > 100 µM (inactive).

Take `COc1ccc(NC(=O)/C(=C/c2ccc(N(CCC#N)CCC#N)cc2)NC(=O)c2cc([N+](=O)[O-])ccc2Cl)cc1`: the GI50 is 15.5 µM (inactive) in the experiment with A549; 26.2 µM (inactive) in the experiment with CAKI-1; 71.6 µM (inactive) in the experiment with CCRF-CEM; 59.8 µM (inactive) in the experiment with COLO 205; 4.62 µM in the experiment with HCT-15; 33.2 µM (inactive) with HOP-62. The GI50 with K562 was 6.76 µM (inactive); with NCI-H226, > 100 µM (inactive); with OVCAR-3, 94.4 µM (inactive); in the experiment with OVCAR-4, > 100 µM (inactive); with OVCAR-5, > 100 µM (inactive); in the experiment with RPMI-8226, > 100 µM (inactive). Besides, the GI50 in the experiment on RXF 393 is > 100 µM (inactive); in the experiment on SK-MEL-28, 53.5 µM (inactive); in the experiment with SK-MEL-2, 56.1 µM (inactive); with U-251 it was > 100 µM (inactive); in the experiment with UACC-62, 13.3 µM (inactive); in the experiment with UO-31 it was 9.91 µM (inactive).

Take `Cc1nc(Nc2nnc(-c3cc([N+](=O)[O-])cc([N+](=O)[O-])c3C)o2)sc1C(=O)CC(=O)Cc1nc2ccc(Cl)cc2nc1O`: the GI50 in the experiment with A549 was > 100 µM (inactive); in the experiment with CAKI-1, > 100 µM (inactive); in the experiment with CCRF-CEM it was > 100 µM (inactive); in the experiment on COLO 205, > 100 µM (inactive); in the experiment on HCT-15, > 100 µM; in the experiment on HL-60 it was > 100 µM (inactive). Also, the GI50 was > 100 µM (inactive) in the experiment with HOP-62; 41.8 µM (inactive) with K562; > 100 µM (inactive) in the experiment on NCI-H226; > 100 µM (inactive) in the experiment on NCI-H460; > 100 µM (inactive) in the experiment on OVCAR-4; > 100 µM (inactive) with OVCAR-5. Besides, the GI50 was > 100 µM (inactive) with RPMI-8226; > 100 µM (inactive) in the experiment on RXF 393; > 100 µM (inactive) in the experiment with SK-MEL-28; > 100 µM (inactive) in the experiment on SK-MEL-2; > 100 µM (inactive) with U-251; 33.6 µM (inactive) with UACC-62. Also, in the experiment with UO-31, the GI50 is > 100 µM (inactive).

Take `CN(C)C(=S)/N=C1\SC(=N\c2ccccc2)/C(=N/c2ccccc2)N1c1ccc([N+](=O)[O-])cc1`: the GI50 is > 100 µM (inactive) with CAKI-1; > 100 µM (inactive) with CCRF-CEM; > 100 µM (inactive) with COLO 205; > 100 µM in the experiment with HCT-15; > 100 µM (inactive) with HL-60; > 100 µM (inactive) with HOP-62. In addition, the GI50 in the experiment on K562, with NCI-H226, with NCI-H460, with OVCAR-3, in the experiment with OVCAR-5 and in the experiment on RPMI-8226 was > 100 µM (inactive) each time. Further, the GI50 in the experiment on RXF 393 was 21.8 µM (inactive); in the experiment on SK-MEL-28, > 100 µM (inactive); in the experiment with SK-MEL-2, > 100 µM (inactive); with U-251, > 100 µM (inactive); in the experiment with UACC-62, > 100 µM (inactive); in the experiment on UO-31 it was > 100 µM (inactive).

`COC(=N)C(C)C`: the GI50 is > 100 µM (inactive) with A549; > 100 µM (inactive) in the experiment on CAKI-1; > 100 µM (inactive) in the experiment with CCRF-CEM; > 100 µM (inactive) in the experiment with COLO 205; > 100 µM in the experiment on HCT-15; > 100 µM (inactive) in the experiment with HL-60. The GI50 in the experiment with HOP-62, in the experiment on K562, in the experiment on NCI-H226, in the experiment on NCI-H460, with OVCAR-3 and in the experiment with OVCAR-4 was > 100 µM (inactive) in each case. Also, the GI50 with OVCAR-5, in the experiment on RPMI-8226, with RXF 393, in the experiment on SK-MEL-28, with U-251 and with UACC-62 was > 100 µM (inactive) each time. Also, the GI50 in the experiment on UO-31 was > 100 µM (inactive).

As for `Cn1c2c(c3ccccc31)CCN(CCCN1CCN(c3ccccc3)CC1)C2=O`, the GI50 in the experiment on A549 was 23.6 µM (inactive); in the experiment with CAKI-1, 16.7 µM (inactive); in the experiment on CCRF-CEM it was 28.2 µM (inactive); with COLO 205 it was 17.6 µM (inactive); in the experiment with HCT-15 it was 19.1 µM; in the experiment on HL-60, 13.5 µM (inactive). In addition, the GI50 with K562 is 17.3 µM (inactive); in the experiment with RPMI-8226 it was 16 µM (inactive); in the experiment with RXF 393, 15.8 µM (inactive); in the experiment with SK-MEL-28, 18.1 µM (inactive); in the experiment with U-251, 16.6 µM (inactive); with UACC-62, 19.3 µM (inactive). In addition, in the experiment on UO-31, the GI50 is 14.7 µM (inactive).

As for `NC(CSC(=O)c1ccccc1)C(=O)O` (stereo not drawn), the GI50 is > 100 µM (inactive) in the experiment on A549; > 100 µM (inactive) with CAKI-1; > 100 µM (inactive) in the experiment on CCRF-CEM; > 100 µM (inactive) in the experiment on COLO 205; > 100 µM with HCT-15; > 100 µM (inactive) with HL-60. The GI50 with HOP-62, in the experiment with NCI-H226, in the experiment on NCI-H460, with OVCAR-3, in the experiment with OVCAR-4 and in the experiment with OVCAR-5 was > 100 µM (inactive) each time. Moreover, the GI50 in the experiment on RPMI-8226, with RXF 393, in the experiment with SK-MEL-28, with SK-MEL-2, in the experiment with U-251 and in the experiment on UACC-62 was > 100 µM (inactive) throughout. Moreover, the GI50 in the experiment with UO-31 is > 100 µM (inactive).

The values are drawn from ChEMBL document CHEMBL1201862, “PubChem BioAssay data set” (2004).
